# Measurements reported in patent US6479504B1, “Antagonism of immunostimulatory CpG-oligonucleotides by 4-aminoquinolines and other weak bases” (The University of Iowa Research Foundation, priority 1999, dated 2002).
# Read-outs that look alike come from different tables or passages of the source.
# What was measured:
# WEHI 231 cells [1] = conditions: 1 μM
# CpG ODN 1760 = experiment: DNA thermal melting at 260 nm; assay type: binding; conditions: 0.3 moles of compound per base, MES with 150 mM KCl, pH 4.4
# Experimental: Thermal melting studies were conducted at 260 nm with a Cary spectrophotometer interfaced to a microcomputer. A thermistor fixed into a reference cuvette was used to monitor the temperature. The DNA oligomer was added to 1 mL of buffer (MES with 150 mM KCl, pH 4.4) in 1 cm path length reduced-volume quartz cells. Studies were generally conducted a at concentration of 5×10-^5M bases. […].
# Structural nucleic acids with duplex or single-stranded folded conformations generally give sigmoid thermal melting curves characteristic of thermal unfolding of the structures. This unfolding results in a change in the UV spectrum. […]
# WEHI 231 cells [2] = experiment: Uptake of Texas Red-labeled CpG-ODN 1760 by flow cytometry; assay type: cell-based, murine; conditions: 5 ug/ml Texas Red CpG-ODN 1760
# Experimental: FIG. 6. […] The cells were then washed three times, and fixed. The cellular uptake of fluorescent CpG-ODN was estimated by flow cytometry. […] .
# After incubation with the additions indicated, the cells were centrifuged and resuspended three times into Hanks buffered salt solution at 37° to remove surface bound ODN, and then resuspended and fixed in 2% paraformaldehyde for analysis in the University of-Iowa Flow Cytometry Facility. 10,000 events were recorded using a Coulter EPICS 753 at 488/600 nm, gating out dead cells. The mean cellular fluorescence was recorded.
# The effect of chloroquine and non-fluorescent analogs on the uptake of Texas Red-labeled CpG-ODN 1760 was investigated. […] . Flow cytometry measures cell-associated fluorescence because signals derived from dead cells (which take up ODN avidly, (Tonkinson and Stein, 1994)) are easily gated out of the analysis.
# WEHI 231 cells [3] = experiment: Confocal microscopy of subcellular distribution of internalized CpG-ODN
# [4] = system: CpG-ODN effect on thymidine uptake by WEHI 231 B-cells; experiment: Inhibition of CpG-ODN effect on thymidine uptake by WEHI 231 B-cells treated with anti-surface IgM; assay type: cell-based, murine
# Excerpt: The ability of analogs to inhibit an immunostimulatory effect of CpG-ODN was examined. This assay measures the reversal of the protection by CpG-ODN against surface IgM induced killing of WEHI 231 cells.
# duplex DNA = conditions: cited from earlier work
# RNA = conditions: cited from earlier work
# quadruplex DNA = experiment: Quadruplex DNA stabilization; assay type: binding
# Excerpt: Since nucleic acids are involved and several compounds of this study have been shown previously to strongly stabilize a triple-helix DNA structure, it was hypothesized initially that stabilization of the triple helix complex is part of the mechanism. […] In addition, compound 1 binds weakly to RNA (Wilson et al., 1993).
# triple-helix DNA = conditions: cited from earlier work
# [5] = experimental, ring nitrogen of the quinoline; taken from Strekowski et al., J Med. Chem. 1996; cited from earlier work
# WEHI 231 cells [6] = experiment: Monensin effect on cellular concentration of quinacrine; assay type: cell-based, murine; conditions: Mus musculus, WEHI231, 0.5 h; 1 uM quinacrine, 30 min; read-out: Monensin concentration for half maximal inhibition of quinacrine uptake and loss of quinacrine from preloaded cells
# Experimental: FIG. 5. Monensin: Cells were incubated with 1 uM quinacrine 17 or compound 227 for 30 min. Monensin at the indicated concentration was added either at the same time as the analog or at the end of the 30 min incubation, and the cellular concentration of the analog was determined by fluorescence.
# Both effects were half maximal at a monensin concentration of about 1 μM (FIG. 5). Similar results were obtained with other analogs.
# WEHI 231 cells [7] = conditions: mouse
# Experimental: Cellular uptake of analogs was estimated by fluorescence. […] The cells were pelleted by centrifugation, and the fluorescence of the supernatant was measured after dilution with the appropriate buffer. The cell pellet was extracted with 1 ml Catrimox-14 (Iowa Biotechnology Corp., Coralville, La.), and the insoluble nucleic acids were removed by centrifugation (16,000×g, 10 min). The resulting extract was diluted with the appropriate buffer, and its fluorescence was measured. […] The fluorescence intensity and spectra were determined with a Farrand Manual Spectrofluorometer at three pH's (3.4, 7.4, 10.0). Subsequent measurements of fluorescence were performed at pH giving the highest yield (Table I).
# Standard curves of the fluorescence intensity of each analog in cell culture medium and in the cell extract buffer were prepared, measurements being taken at the pH listed in the table. To examine the uptake of the analogs by cells, WEHI 231 cells were incubated with a range of concentrations of the analogs, and measured the concentration of the analog remaining in the supernatant and the amount of analog in the extract of a cell pellet using the standard curves.
# The sources were a=Sigma Chemical Co., b=National Cancer Institute, c=Synthesized by LS, d=Synthesized by FMI. […] ND, not determined.
# [8] = concentration for half-maximal inhibition of CpG-ODN effect on thymidine uptake by WEHI 231 B-cells in presence of anti-sIgM, estimated experimental error ± 15%, read-out: EC50
compound,measurement,setting,value
"CCN(CC)CCCC(C)Nc1ccnc2cc(Cl)ccc12 (stereo not shown) [Chloroquine, chloroquine]",Increase in the pH of CpG-ODN-containing compartment,WEHI 231 cells [1],less than 0.01 pH units
same,Change in the thermal melting curve of the free CpG-ODN,CpG ODN 1760,did not cause any significant change
same,Influence on CpG-ODN uptake,WEHI 231 cells [2],no significant influence
same,Influence on subcellular distribution of internalized CpG-ODN,WEHI 231 cells [3],did not influence
same,Suppression of CpG-ODN responses,[4]; 1 μM,completely suppresses
CN(C)CCNc1cc(-c2ccc3ccccc3c2)nc2ccccc12 [Compound 1],Binding to duplex DNA,duplex DNA,binds weakly
same,Binding to RNA,RNA,binds weakly
same,Stabilization of quadruplex DNA,quadruplex DNA,do not stabilize
same,Triplex DNA stabilization / binding,triple-helix DNA,one of the best triplex DNA stabilizing agents known to date
same,EC50,[4]; [8],9.1 nM
same,pKa,[5],7.1
CN(C)CCNc1cc(-c2cccc3ccccc23)nc2ccccc12 [Compound 3],Binding to duplex DNA,duplex DNA,does not bind at all
same,Stabilization of quadruplex DNA,quadruplex DNA,do not stabilize
same,Triplex DNA stabilization / binding,triple-helix DNA,does not promote triplex DNA formation and does not bind to the triple DNA structure
same,EC50,[4]; [8],39.8 nM
CN(C)CCN(C)c1cc(-c2ccc3ccccc3c2)nc2ccccc12 [Compound 7],EC50,[4]; [8],416 nM
same,pKa,[5],6.2
CN(C)CCSc1cc(-c2ccc3ccccc3c2)nc2ccccc12 [Compound 9],EC50,[4]; [8],2400 nM
same,pKa,[5],4.4
CN(C)CCNC(=O)c1cc(-c2ccc3ccccc3c2)nc2ccccc12 [Compound 10],EC50,[4]; [8],> 10000 nM
same,pKa,[5],2.9
CC[C@@]1([C@@H]2O[C@@H]([C@H]3O[C@@](O)(CO)[C@H](C)C[C@@H]3C)C[C@@H]2C)CC[C@H]([C@]2(C)CC[C@]3(C[C@H](O)[C@@H](C)[C@@H]([C@@H](C)[C@@H](OC)[C@H](C)C(=O)O)O3)O2)O1 [Monensin],EC50,WEHI 231 cells [6],~1000 nM
CCN(CC)CCCC(C)Nc1c2ccc(Cl)cc2nc2ccc(OC)cc12 (stereo not shown) [Quinacrine],Change in the thermal melting curve of the free CpG-ODN,CpG ODN 1760,did not cause any significant change
same,Cellular uptake ratio,WEHI 231 cells [7],601
same,EC50,"[4]; Mus musculus, WEHI231, concentration required for 50% blockage of the ability of CpG-ODN to rescue WEHI 231 cells from anti-surface IgM-induced cell death, read-out: 50% Efficacy",10.2 nM
